Columns and labels:
[1] = test system: luciferase expression in the liver (FLuc mRNA); assay: Luciferase mRNA in vivo evaluation using lipid nanoparticle compositions; design: species or system mice (C57BL/6, CD-1); settings: LNP with FLuc mRNA, tail vein injection, liver 4 hours after administration; for Liver Luc (ng luc/g liver), *dosed at 0.3 mg/kg: dosed at 0.3 mg/kg (footnote *); for Liver Luc @ 0.5 mg/kg (ng luc/g liver): 0.5 mg mRNA/kg
Procedure: A lipid of structure (I), DSPC, cholesterol and PEG-lipid were solubilized in ethanol at a molar ratio of 50:10:38.5:1.5 or 47.5:10:40.8:1.7. Lipid nanoparticles (LNP) were prepared at a total lipid to mRNA weight ratio of approximately 10:1 to 30:1. Briefly, the mRNA was diluted to 0.2 mg/mL in 10 to 50 mM citrate buffer, pH 4. Syringe pumps were used to mix the ethanolic lipid solution with the mRNA aqueous solution at a ratio of about 1:5 to 1:3 (vol/vol) with total flow rates above 15 mL/min. The ethanol was then removed and the external buffer replaced with PBS by dialysis. Finally, the lipid nanoparticles were filtered through a 0.2 μm pore sterile filter.
Studies were performed in 6-8 week old female C57BL/6 mice (Charles River) 8-10 week old CD-1 (Harlan) mice (Charles River) according to guidelines established by an institutional animal care committee (ACC) and the Canadian Council on Animal Care (CCAC). Varying doses of mRNA-lipid nanoparticle were systemically administered by tail vein injection and animals euthanized at a specific time point (e.g., 4 hours) post-administration. Liver and spleen were collected in pre-weighed tubes, weights determined, immediately snap frozen in liquid nitrogen and stored at −80° C. until processing for analysis.
For liver, approximately 50 mg was dissected for analyses in a 2 mL FastPrep tubes (MP Biomedicals, Solon OH). ¼″ ceramic sphere (MP Biomedicals) was added to each tube and 500 μL of Glo Lysis Buffer—GLB (Promega, Madison Wis.) equilibrated to room temperature was added to liver tissue. Liver tissues were homogenized with the FastPrep24 instrument (MP Biomedicals) at 2×6.0 m/s for 15 seconds. Homogenate was incubated at room temperature for 5 minutes prior to a 1:4 dilution in GLB and assessed using SteadyGlo Luciferase assay system (Promega). Specifically, 50 μL of diluted tissue homogenate was reacted with 50 μL of SteadyGlo substrate, shaken for 10 seconds followed by 5 minute incubation and then quantitated using a CentroXS^3 LB 960 luminometer (Berthold Technologies, Germany). The amount of protein assayed was determined by using the BCA protein assay kit (Pierce, Rockford, Ill.). Relative luminescence units (RLU) were then normalized to total μg protein assayed. To convert RLU to ng luciferase a standard curve was generated with QuantiLum Recombinant Luciferase (Promega).
The FLuc mRNA (L-6107or L-7602) from Trilink Biotechnologies will express a luciferase protein, originally isolated from the firefly, photinus pyralis. FLuc is commonly used in mammalian cell culture to measure both gene expression and cell viability. It emits bioluminescence in the presence of the substrate, luciferin. This capped and polyadenylated mRNA is fully substituted with 5-methylcytidine and pseudouridine.
Compounds of structure (I) were formulated using the following molar ratio: 47.5% cationic lipid/ 10% distearoylphosphatidylcholine (DSPC)/40.8% Cholesterol/1.7% PEG lipid (“PEG-DMA” 2-[2-(ω-methoxy(polyethyleneglycol2000)ethoxy]-N,N-ditetradecylacetamide). Relative activity was determined by measuring luciferase expression in the liver 4 hours following administration via tail vein injection as described in Example 1.
The cationic lipids shown in Table 2 have previously been tested with nucleic acids. For comparative purposes, these lipids were also used to formulate lipid nanoparticles containing the FLue mRNA (L-6107) using an in line mixing method, as described in Example 1 and in PCT/US10/22614, which is hereby incorporated by reference in its entirety. Lipid nanoparticles may be formulated using the following molar ratio: 50% Cationic lipid/10% distearoylphosphatidylcholine (DSPC)/38.5% Cholesterol/1.5% PEG lipid (“PEG-DMG”, i.e., 1-(monomethoxy-polyethyleneglycol)-2,3-dimyristoylglycerol, with an average PEG molecular weight of 2000). In alternate embodiments, cationic lipid, DSPC, cholesterol and PEG-lipid are formulated at a molar ratio of approximately 47.5:10:40.8:1.7. […]

[2] = Determination of pKa of formulated lipids (TNS fluorescence assay in lipid nanoparticles); type: physicochemical; settings: probe TNS (2-(p-toluidino)-6-napthalene sulfonic acid); lipid formulated in LNP (compound/DSPC/cholesterol/PEG-lipid); pH giving half-maximal TNS fluorescence
Source text: As described elsewhere, the pKa of formulated lipids is correlated with the effectiveness of LNPs for delivery of nucleic acids (see Jayaraman et al, Angewandte Chemie, International Edition (2012), 51(34), 8529-8533; Semple et al, Nature Biotechnology 28, 172-176 (2010)). In some embodiments, the preferred range of pKa is ˜5 to ˜7. […] Lipid nanoparticles comprising compound of structure (I)/DSPC/cholesterol/PEG-lipid (50/10/38.5/1.5 or 47.5:10:40.8:1.7 mol %) in PBS at a concentration of 0.4 mM total lipid were prepared using the in-line process as described in Example 1. TNS was prepared as a 100 μM stock solution in distilled water. Vesicles were diluted to 24 μM lipid in 2 mL of buffered solutions containing 10 mM HEPES, 10 mM MES, 10 mM ammonium acetate, and 130 mM NaCl, where the pH ranged from 2.5 to 11. An aliquot of the TNS solution was added to give a final concentration of 1 μM and following vortex mixing fluorescence intensity was measured at room temperature in a SLM Aminco Series 2 Luminescence Spectrophotometer using excitation and emission wavelengths of 321 nm and 445 nm. A sigmoidal best fit analysis was applied to the fluorescence data and the pKa was measured as the pH giving rise to half-maximal fluorescence intensity.

Structure (SMILES) | Liver Luc (ng luc/g liver), *dosed at 0.3 mg/kg [1] | pKa [2] | Liver Luc @ 0.5 mg/kg (ng luc/g liver) [1] [ng luc/g liver]
CCCCCCCCCN(CCO)CCN(CCCCCC(=O)OCC(CCCCCC)CCCCCCCC)CCCCCC(=O)OCC(CCCCCC)CCCCCCCC (centres unmarked) [Compound 1] | 330 ± 70* ng luc/g liver | 5.83 | –
CCCCCCCCCN(CCCO)CCN(CCCCCC(=O)OCC(CCCCCC)CCCCCCCC)CCCCCC(=O)OCC(CCCCCC)CCCCCCCC (centres unmarked) [Compound 2] | 553 ± 291* ng luc/g liver | 5.76 | –
CCCCCCCCC(CCCCCC)COC(=O)CCCCCCCN(CCCCCCCC(=O)OCC(CCCCCC)CCCCCCCC)CCN(CCO)CCCO (centres unmarked) [Compound 3] | – | 7.18 | –
CCCCCCCCC(CCCCCC)COC(=O)CCCCCN(CCCCCC(=O)OCC(CCCCCC)CCCCCCCC)CCN(C)CCO (centres unmarked) [Compound 4] | 50 ± 14* ng luc/g liver | 6.91 | –
CCCCCCCCC(CCCCCC)COC(=O)CCCCCN(CCCCCC(=O)OCC(CCCCCC)CCCCCCCC)CCN(C)CCCCCCCCCO (centres unmarked) [Compound 5] | – | 6.17 | 1597 ± 456
CCCCCCCCC(CCCCCC)COC(=O)CCCCCCCN(CCCCCCCC(=O)OCC(CCCCCC)CCCCCCCC)CCN(CC)CCCO (centres unmarked) [Compound 6] | – | 6.82 | –
CCCCCCCCC(CCCCCC)COC(=O)CCCCCN(CCCCCC(=O)OCC(CCCCCC)CCCCCCCC)CCN(C)CCCCCCO (centres unmarked) [Compound 7] | – | 6.69 | 16 ± 14
CCCCCCC(CCCC)C(=O)OCCCCCCCCCN(CCCCCCCCCOC(=O)C(CCCC)CCCCCC)CCN(C)CCCCCCCCCO (centres unmarked) [Compound 8] | – | 6.08 | 54 ± 10
